Results published in BindingDB's records for doi:10.1016/j.bmcl.2004.04.032 (Bristol-Myers Squibb, 2004).

Target: T1, Thyroid hormone receptor alpha (Homo sapiens, UniProt P10827)
T1 sequence (P10827 whole entry): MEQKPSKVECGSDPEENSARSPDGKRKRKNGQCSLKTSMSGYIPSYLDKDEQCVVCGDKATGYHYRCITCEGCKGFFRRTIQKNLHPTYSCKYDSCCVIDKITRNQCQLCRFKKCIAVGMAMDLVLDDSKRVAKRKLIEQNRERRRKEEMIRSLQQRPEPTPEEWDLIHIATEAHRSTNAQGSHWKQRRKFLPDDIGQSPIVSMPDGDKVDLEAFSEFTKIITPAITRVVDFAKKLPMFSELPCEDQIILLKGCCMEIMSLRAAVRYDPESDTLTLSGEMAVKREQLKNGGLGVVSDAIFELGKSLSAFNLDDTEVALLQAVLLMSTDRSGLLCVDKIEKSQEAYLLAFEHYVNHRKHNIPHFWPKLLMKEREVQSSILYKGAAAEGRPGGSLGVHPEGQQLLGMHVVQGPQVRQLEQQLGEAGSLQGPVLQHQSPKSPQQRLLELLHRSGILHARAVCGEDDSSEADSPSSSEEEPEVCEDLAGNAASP
Experiment: TRalpha-Binding Assay.

SMILES: O=C(O)Cc1cc(Br)c(Oc2ccc(O)c(C(=O)NCC(c3ccccc3)c3ccccc3)c2)c(Br)c1 [2-(3,5-dibromo-4-{3-[(2,2-diphenylethyl)carbamoyl]-4-hydroxyphenoxy}phenyl)acetic acid]
- IC50: 18 nM

SMILES: O=C(O)Cc1cc(Br)c(Oc2ccc(O)c(Oc3ccccc3C(F)(F)F)c2)c(Br)c1 [2-(3,5-dibromo-4-{4-hydroxy-3-[2-(trifluoromethyl)phenoxy]phenoxy}phenyl)acetic acid]
- IC50: 244 nM

SMILES: O=C(O)Cc1cc(Br)c(Oc2ccc(O)c(Oc3cccc(C(F)(F)F)c3)c2)c(Br)c1 [2-(3,5-dibromo-4-{4-hydroxy-3-[3-(trifluoromethyl)phenoxy]phenoxy}phenyl)acetic acid]
- IC50: 50 nM

SMILES: O=C(O)Cc1cc(Br)c(Oc2ccc(O)c(Oc3ccc(C(F)(F)F)cc3)c2)c(Br)c1 [2-(3,5-dibromo-4-{4-hydroxy-3-[4-(trifluoromethyl)phenoxy]phenoxy}phenyl)acetic acid]
- IC50: 326 nM

SMILES: O=C(O)Cc1cc(Br)c(Oc2ccc(O)c(C(=O)NCCc3ccccc3)c2)c(Br)c1 [2-(3,5-dibromo-4-{4-hydroxy-3-[(2-phenylethyl)carbamoyl]phenoxy}phenyl)acetic acid]
- IC50: 15 nM

SMILES: O=C(O)Cc1cc(Br)c(Oc2ccc(O)c(C(=O)NCCCc3ccccc3)c2)c(Br)c1 [2-(3,5-dibromo-4-{4-hydroxy-3-[(3-phenylpropyl)carbamoyl]phenoxy}phenyl)acetic acid]
- IC50: 203 nM

SMILES: O=C(O)Cc1cc(Br)c(Oc2ccc(O)c(C(=O)NCCCCc3ccccc3)c2)c(Br)c1 [2-(3,5-dibromo-4-{4-hydroxy-3-[(4-phenylbutyl)carbamoyl]phenoxy}phenyl)acetic acid]
- IC50: 281 nM

SMILES: O=C(O)Cc1cc(Cl)c(Oc2ccc(O)c(-c3cccc(OC(F)F)c3)c2)c(Cl)c1 [2-(3,5-dichloro-4-{3-[3-(difluoromethoxy)phenyl]-4-hydroxyphenoxy}phenyl)acetic acid]
- IC50 (pH 7, 4 °C): 30 nM

SMILES: O=C(O)Cc1cc(Cl)c(Oc2ccc(O)c(-c3ccccc3C(F)(F)F)c2)c(Cl)c1 [2-(3,5-dichloro-4-{4-hydroxy-3-[2-(trifluoromethyl)phenyl]phenoxy}phenyl)acetic acid]
- IC50 (pH 7, 4 °C): 18 nM

SMILES: CC(C)c1cccc(-c2cc(Oc3c(Cl)cc(CC(=O)O)cc3Cl)ccc2O)c1 [2-(3,5-dichloro-4-{4-hydroxy-3-[3-(propan-2-yl)phenyl]phenoxy}phenyl)acetic acid]
- IC50 (pH 7, 4 °C): 124 nM

SMILES: O=C(O)Cc1cc(Cl)c(Oc2ccc(O)c(-c3cccc(OC(F)(F)F)c3)c2)c(Cl)c1 [2-(3,5-dichloro-4-{4-hydroxy-3-[3-(trifluoromethoxy)phenyl]phenoxy}phenyl)acetic acid]
- IC50 (pH 7, 4 °C): 100 nM

SMILES: O=C(O)Cc1cc(Cl)c(Oc2ccc(O)c(-c3cccc(C(F)(F)F)c3)c2)c(Cl)c1 [2-(3,5-dichloro-4-{4-hydroxy-3-[3-(trifluoromethyl)phenyl]phenoxy}phenyl)acetic acid]
- IC50 (pH 7, 4 °C): 40 nM

SMILES: O=C(O)Cc1cc(Cl)c(Oc2ccc(O)c(-c3ccc(C(F)(F)F)cc3)c2)c(Cl)c1 [2-(3,5-dichloro-4-{4-hydroxy-3-[4-(trifluoromethyl)phenyl]phenoxy}phenyl)acetic acid]
- IC50 (pH 7, 4 °C): 515 nM

SMILES: O=C(O)Cc1cc(Cl)c(Oc2ccc(O)c(C(=O)NCCc3ccccc3)c2)c(Cl)c1 [2-(3,5-dichloro-4-{4-hydroxy-3-[(2-phenylethyl)carbamoyl]phenoxy}phenyl)acetic acid]
- IC50: 127 nM

SMILES: O=C(O)Cc1cc(Br)c(Oc2ccc(O)c(Oc3ccccc3)c2)c(Br)c1 [2-[3,5-dibromo-4-(4-hydroxy-3-phenoxyphenoxy)phenyl]acetic acid]
- IC50: 123 nM

SMILES: COc1ccccc1CCNC(=O)c1cc(Oc2c(Br)cc(CC(=O)O)cc2Br)ccc1O [2-[3,5-dibromo-4-(4-hydroxy-3-{[2-(2-methoxyphenyl)ethyl]carbamoyl}phenoxy)phenyl]acetic acid]
- IC50: 96 nM

SMILES: COc1cccc(CCNC(=O)c2cc(Oc3c(Br)cc(CC(=O)O)cc3Br)ccc2O)c1 [2-[3,5-dibromo-4-(4-hydroxy-3-{[2-(3-methoxyphenyl)ethyl]carbamoyl}phenoxy)phenyl]acetic acid]
- IC50: 93 nM

SMILES: COc1ccc(CCNC(=O)c2cc(Oc3c(Br)cc(CC(=O)O)cc3Br)ccc2O)cc1 [2-[3,5-dibromo-4-(4-hydroxy-3-{[2-(4-methoxyphenyl)ethyl]carbamoyl}phenoxy)phenyl]acetic acid]
- IC50: 228 nM

SMILES: O=C(O)Cc1cc(Br)c(Oc2ccc(O)c(C(=O)NCCc3ccccn3)c2)c(Br)c1 [2-[3,5-dibromo-4-(4-hydroxy-3-{[2-(pyridin-2-yl)ethyl]carbamoyl}phenoxy)phenyl]acetic acid]
- IC50: 1130 nM

SMILES: O=C(O)Cc1cc(Cl)c(Oc2ccc(O)c(C3CCCCC3)c2)c(Cl)c1 [2-[3,5-dichloro-4-(3-cyclohexyl-4-hydroxyphenoxy)phenyl]acetic acid]
- IC50 (pH 7, 4 °C): 258 nM

SMILES: O=C(O)Cc1cc(Cl)c(Oc2ccc(O)c(-c3ccccc3)c2)c(Cl)c1 [2-[3,5-dichloro-4-(4-hydroxy-3-phenylphenoxy)phenyl]acetic acid]
- IC50 (pH 7, 4 °C): 152 nM

SMILES: O=C(O)Cc1cc(Br)c(Oc2ccc(O)c(Oc3ccccc3O)c2)c(Br)c1 [2-{3,5-dibromo-4-[4-hydroxy-3-(2-hydroxyphenoxy)phenoxy]phenyl}acetic acid]
- IC50: 1470 nM

SMILES: O=C(O)Cc1cc(Br)c(Oc2ccc(O)c(Oc3cccc(O)c3)c2)c(Br)c1 [2-{3,5-dibromo-4-[4-hydroxy-3-(3-hydroxyphenoxy)phenoxy]phenyl}acetic acid]
- IC50: 549 nM

SMILES: O=C(O)Cc1cc(Br)c(Oc2ccc(O)c(Oc3cccc(-c4ccccc4)c3)c2)c(Br)c1 [2-{3,5-dibromo-4-[4-hydroxy-3-(3-phenylphenoxy)phenoxy]phenyl}acetic acid]
- IC50: 499 nM

SMILES: O=C(O)Cc1cc(Br)c(Oc2ccc(O)c(Oc3ccc(O)cc3)c2)c(Br)c1 [2-{3,5-dibromo-4-[4-hydroxy-3-(4-hydroxyphenoxy)phenoxy]phenyl}acetic acid]
- IC50: 237 nM

SMILES: O=C(O)Cc1cc(Br)c(Oc2ccc(O)c(C(=O)Nc3ccccc3)c2)c(Br)c1 [2-{3,5-dibromo-4-[4-hydroxy-3-(phenylcarbamoyl)phenoxy]phenyl}acetic acid]
- IC50: 424 nM

SMILES: CCc1cccc(-c2cc(Oc3c(Cl)cc(CC(=O)O)cc3Cl)ccc2O)c1 [2-{3,5-dichloro-4-[3-(3-ethylphenyl)-4-hydroxyphenoxy]phenyl}acetic acid]
- IC50 (pH 7, 4 °C): 13 nM

SMILES: O=C(O)Cc1cc(Cl)c(Oc2ccc(O)c(-c3nccs3)c2)c(Cl)c1 [2-{3,5-dichloro-4-[4-hydroxy-3-(1,3-thiazol-2-yl)phenoxy]phenyl}acetic acid]
- IC50 (pH 7, 4 °C): 558 nM

SMILES: O=C(O)Cc1cc(Cl)c(Oc2ccc(O)c(-c3ccccc3O)c2)c(Cl)c1 [2-{3,5-dichloro-4-[4-hydroxy-3-(2-hydroxyphenyl)phenoxy]phenyl}acetic acid]
- IC50 (pH 7, 4 °C): 1050 nM

SMILES: O=C(O)Cc1cc(Cl)c(Oc2ccc(O)c(-c3cccc(O)c3)c2)c(Cl)c1 [2-{3,5-dichloro-4-[4-hydroxy-3-(3-hydroxyphenyl)phenoxy]phenyl}acetic acid]
- IC50 (pH 7, 4 °C): 1160 nM

SMILES: COc1cccc(-c2cc(Oc3c(Cl)cc(CC(=O)O)cc3Cl)ccc2O)c1 [2-{3,5-dichloro-4-[4-hydroxy-3-(3-methoxyphenyl)phenoxy]phenyl}acetic acid]
- IC50 (pH 7, 4 °C): 297 nM

SMILES: O=C(O)Cc1cc(Cl)c(Oc2ccc(O)c(-c3cccc(-c4ccccc4)c3)c2)c(Cl)c1 [2-{3,5-dichloro-4-[4-hydroxy-3-(3-phenylphenyl)phenoxy]phenyl}acetic acid]
- IC50 (pH 7, 4 °C): 454 nM

SMILES: O=C(O)Cc1cc(Cl)c(Oc2ccc(O)c(-c3ccc(O)cc3)c2)c(Cl)c1 [2-{3,5-dichloro-4-[4-hydroxy-3-(4-hydroxyphenyl)phenoxy]phenyl}acetic acid]
- IC50 (pH 7, 4 °C): 847 nM

SMILES: O=C(O)Cc1cc(Cl)c(Oc2ccc(O)c(-c3ccccn3)c2)c(Cl)c1 [2-{3,5-dichloro-4-[4-hydroxy-3-(pyridin-2-yl)phenoxy]phenyl}acetic acid]
- IC50 (pH 7, 4 °C): 1520 nM

SMILES: O=C(O)Cc1cc(Cl)c(Oc2ccc(O)c(-c3cccnc3)c2)c(Cl)c1 [2-{3,5-dichloro-4-[4-hydroxy-3-(pyridin-3-yl)phenoxy]phenyl}acetic acid]
- IC50 (pH 7, 4 °C): 819 nM

SMILES: O=C(O)Cc1cc(Cl)c(Oc2ccc(O)c(-c3ccncc3)c2)c(Cl)c1 [2-{3,5-dichloro-4-[4-hydroxy-3-(pyridin-4-yl)phenoxy]phenyl}acetic acid]
- IC50 (pH 7, 4 °C): 145 nM

SMILES: O=C(O)Cc1cc(Cl)c(Oc2ccc(O)c(-c3cncnc3)c2)c(Cl)c1 [2-{3,5-dichloro-4-[4-hydroxy-3-(pyrimidin-5-yl)phenoxy]phenyl}acetic acid]
- IC50 (pH 7, 4 °C): 269 nM

SMILES: O=C(O)Cc1cc(Br)c(Oc2ccc(O)c(C(=O)NCc3ccccc3)c2)c(Br)c1 [2-{4-[3-(benzylcarbamoyl)-4-hydroxyphenoxy]-3,5-dibromophenyl}acetic acid]
- IC50: 84 nM
